Conditions in all cases: stereoisomer not certain
Data set [1] is described as follows: RP, Waters CORTECS T3, 100 × 2.1 mm, 2.7 µm, 0.3 mL/min, estimated dead time 0.73 min; A: water + 0.1% formic acid, pH 3; B: methanol + 0.1% formic acid, pH 3; gradient (min/%B) 0/5 5/5 25/100 30/100 30.1/5 35/5.
The nature of data set [2]: RP, Waters ACQUITY UPLC BEH C18, 100 × 2.1 mm, 1.7 µm, 0.1 mL/min, estimated dead time 2.2 min; A: water + 0.1% formic acid, pH 3; B: methanol + 0.1% formic acid, pH 3; gradient (min/%B) 0/5 5/5 25/95 25.1/100 35/100 35.1/5 45/5.
A short description of data set [3]: RP, Waters CORTECS T3, 100 × 2.1 mm, 2.7 µm, 0.25 mL/min, estimated dead time 0.88 min; A: water + 0.1% formic acid, pH 3; B: methanol + 0.1% formic acid, pH 3; gradient (min/%B) 0/5 5/5 25/95 25.1/100 35/100 35.1/5 45/5.
The nature of data set [4]: HILIC, Thermo Scientific Accucore HILIC, 100 × 2.1 mm, 2.6 µm, 0.5 mL/min, estimated dead time 0.44 min; A: water + 0.1% formic acid + 10 mM ammonium formate, pH 3; B: 5% water + 95% acetonitrile + 0.1% formic acid + 10 mM ammonium formate, pH 3; gradient (min/%B) 0/95 5/95 20/57 25/57 30/95 40/95.
The nature of data set [5]: RP, Waters ACQUITY UPLC BEH C18, 100 × 2.1 mm, 1.7 µm, 0.1 mL/min, estimated dead time 2.2 min; A: water + 0.1% formic acid, pH 3; B: methanol + 0.1% formic acid, pH 3; gradient (min/%B) 0/5 5/5 25/100 30/100 30.1/5 35/5.
Data set [6] can be described thus: RP, Waters CORTECS T3, 100 × 2.1 mm, 2.7 µm, 0.15 mL/min, estimated dead time 1.5 min; A: water + 0.1% formic acid, pH 3; B: methanol + 0.1% formic acid, pH 3; gradient (min/%B) 0/5 5/5 25/95 25.1/100 35/100 35.1/5 45/5.
The nature of data set [7]: RP, Waters CORTECS T3, 100 × 2.1 mm, 2.7 µm, 0.3 mL/min, estimated dead time 0.73 min; A: water + 0.1% formic acid, pH 3; B: methanol + 0.1% formic acid, pH 3; gradient (min/%B) 0/0 5/0 25/100 30/100 30.1/0 35/0.
A short description of data set [8]: RP, Waters CORTECS T3, 100 × 2.1 mm, 2.7 µm, 0.3 mL/min, estimated dead time 0.73 min; A: water + 0.1% formic acid, pH 3; B: methanol + 0.1% formic acid, pH 3; gradient (min/%B) 0/0 1/0 6/5 30/100 35/100 35.1/0 40/0.
Data set [9] in a line: RP, Waters ACQUITY UPLC BEH C18, 100 × 2.1 mm, 1.7 µm, 0.1 mL/min, estimated dead time 2.2 min; A: water + 0.1% formic acid, pH 3; B: methanol + 0.1% formic acid, pH 3; gradient (min/%B) 0/5 5/5 25/95 25.1/100 35/100 35.1/5 45/5. This is another data set of the same source.
Data set [10] in a line: RP, Waters CORTECS T3, 100 × 2.1 mm, 2.7 µm, 0.2 mL/min, estimated dead time 1.1 min; A: water + 0.1% formic acid, pH 3; B: methanol + 0.1% formic acid, pH 3; gradient (min/%B) 0/0 1/0 6/5 30/100 35/100 35.1/0 40/0.
A short description of data set [11]: RP, Waters CORTECS T3, 100 × 2.1 mm, 2.7 µm, 0.1 mL/min, estimated dead time 2.2 min; A: water + 0.1% formic acid, pH 3; B: methanol + 0.1% formic acid, pH 3; gradient (min/%B) 0/5 5/5 25/95 25.1/100 35/100 35.1/5 45/5.
Data set [12] can be described thus: RP, Waters CORTECS T3, 100 × 2.1 mm, 2.7 µm, 0.2 mL/min, estimated dead time 1.1 min; A: water + 0.045% formic acid + 0.11% ammonium hydroxide, pH 7; B: methanol; gradient (min/%B) 0/5 5/5 25/95 25.1/100 35/100 35.1/5 45/5.
Data set [13] in a line: RP, Waters CORTECS T3, 100 × 2.1 mm, 2.7 µm, 0.15 mL/min, estimated dead time 1.5 min; A: water + 0.1% formic acid, pH 3; B: methanol + 0.1% formic acid, pH 3; gradient (min/%B) 0/0 1/0 6/5 30/100 35/100 35.1/0 40/0.
A short description of data set [14]: RP, Waters ACQUITY UPLC BEH C18, 100 × 2.1 mm, 1.7 µm, 0.1 mL/min, estimated dead time 2.2 min; A: water + 0.045% formic acid + 0.11% ammonium hydroxide, pH 7; B: methanol; gradient (min/%B) 0/5 5/5 25/95 25.1/100 35/100 35.1/5 45/5.
Data set [15] can be described thus: RP, Waters CORTECS T3, 100 × 2.1 mm, 2.7 µm, 0.3 mL/min, estimated dead time 0.73 min; A: water + 0.1% formic acid, pH 3; B: methanol + 0.1% formic acid, pH 3; gradient (min/%B) 0/0 1/0 6/5 30/100 35/100 35.1/0 40/0. The source holds these as a separate data set.
The nature of data set [16]: HILIC, Merck SeQuant ZIC-HILIC, 150 × 2.1 mm, 5 µm, 0.75 mL/min, estimated dead time 0.44 min; A: water + 0.1% acetic acid + 10 mM ammonium acetate, pH 4; B: 5% water + 95% acetonitrile + 0.1% acetic acid + 10 mM ammonium acetate, pH 4; gradient (min/%B) 0/95 5/95 20/57 25/57 30/95 40/95.
Data set [17] can be described thus: HILIC, Merck SeQuant ZIC-HILIC, 150 × 2.1 mm, 5 µm, 0.75 mL/min, estimated dead time 0.44 min; A: water + 10 mM ammonium formate, pH 6; B: 5% water + 95% acetonitrile + 10 mM ammonium formate, pH 6; gradient (min/%B) 0/95 5/95 20/57 25/57 30/95 40/95.

As for `O=C(O)c1cc(=O)c2ccccc2[nH]1` [4-HYDROXY-2-QUINOLINECARBOXYLIC ACID], the LC retention time was 9.17 min in [1]; 14.3 min in [2]; 9.94 min in data set [3]; 6.71 min in [4]; 14.2 min in [5]; 12.1 min in [6]. Further, the LC retention time in data set [7] is 10.5 min; in data set [8] it was 10.8 min; in [9], 14.3 min; in data set [10], 12.3 min; in [11], 14.2 min; in [12], 7.9 min. Besides, the LC retention time in [13] is 13.6 min; in [14], 11.7 min; in data set [15], 10.7 min.

Regarding `CC(C)(CO)C(O)C(=O)NCCC(=O)O` [D-PANTOTHENIC ACID], the LC retention time in data set [1] was 5.2 min; in [16], 9.3 min; in data set [3], 6.32 min; in [4], 4.93 min; in data set [5], 11.5 min; in data set [6], 9.08 min. For the same molecule, the LC retention time is 8.6 min in data set [7]; 8.1 min in data set [8]; 9.6 min in data set [10]; 11.2 min in [11]; 10.9 min in [13]; 10.5 min in [17]. The LC retention time in [15] is 7.94 min.

Turning to `CC1NC(=O)NC1CCCCCC(=O)O` (configuration not stated) [DETHIOBIOTIN], the LC retention time in data set [1] was 12.4 min; in data set [3], 13.2 min; in [5] it was 16.9 min; in data set [6], 15.1 min; in data set [7] it was 13.2 min; in [8], 14.3 min. Also, the LC retention time in data set [10] is 15.7 min; in [11], 17.1 min; in [12] it was 9.32 min; in data set [13], 16.9 min; in data set [17], 3.19 min; in data set [14] it was 12.5 min. In addition, in [15], the LC retention time is 14.3 min.

On to `CC(=O)N[C@H](Cc1c[nH]c2ccccc12)C(=O)O` [N-ACETYL-D-TRYPTOPHAN], for which the LC retention time in data set [1] was 12.3 min; in data set [16] it was 8.28 min; in data set [3] it was 13.2 min; in data set [5], 17.3 min; in data set [6], 15.2 min; in data set [7] it was 13.2 min. In addition, the LC retention time was 14.2 min in [8]; 15.7 min in data set [10]; 17.3 min in data set [11]; 10.4 min in [12]; 17 min in [13]; 8.49 min in [17]. In addition, the LC retention time in data set [14] is 14.1 min; in [15] it was 14.2 min.

As for `Nc1nc2nccnc2c(=O)[nH]1` [PTERIN], the LC retention time in data set [1] was 1.73 min; in [16], 5.43 min; in [3] it was 2.11 min; in [4], 3.39 min; in data set [5] it was 4.78 min; in data set [6], 3.45 min. Besides, the LC retention time in data set [7] was 3.11 min; in data set [8], 3.11 min; in [9], 2.72 min; in [11], 4.93 min; in data set [12] it was 1.35 min; in data set [13] it was 5.95 min. For the same molecule, the LC retention time is 5.74 min in data set [17] and 2.75 min in [15].

As for `Cc1cc2nc3c(=O)[nH]c(=O)nc-3n(CC(O)C(O)C(O)CO)c2cc1C` (configuration not stated) [RIBOFLAVIN], the LC retention time in data set [1] is 11.7 min; in data set [2], 15.7 min; in data set [3], 12.4 min; in data set [5], 15.5 min; in [6], 14.1 min; in data set [7] it was 12.5 min. In addition, the LC retention time in data set [8] was 13.5 min; in [9], 15.7 min; in data set [10], 14.7 min; in data set [11] it was 16 min; in [12] it was 13.2 min; in [13], 15.8 min. The LC retention time is 15.7 min in [14] and 13.5 min in [15].

`O=c1[nH]c(=O)c2[nH]cnc2[nH]1` [XANTHINE]: the LC retention time in [1] is 1.53 min; in data set [16], 5.71 min; in [2], 2.66 min; in data set [3], 1.85 min; in [4], 1.92 min; in data set [6], 3.01 min. The LC retention time in data set [7] was 2.39 min; in [8], 2.39 min; in data set [9] it was 2.72 min; in data set [10], 3.32 min; in data set [11], 4.3 min; in data set [13], 4.65 min. Further, the figures for the LC retention time in [17] and in data set [15] were 5.7 min and 2.17 min, respectively.

Turning to `O=C(O)c1cc(=O)c2cccc(O)c2[nH]1` [XANTHURENIC ACID], the LC retention time is 8.94 min in [1]; 9.68 min in data set [16]; 13.9 min in data set [2]; 9.71 min in data set [3]; 7.89 min in data set [4]; 13.8 min in data set [5]. The LC retention time in data set [6] is 11.8 min; in data set [7], 10.3 min; in data set [8] it was 10.5 min; in data set [9] it was 13.8 min; in data set [10], 12.1 min; in [11], 13.9 min. Moreover, the LC retention time is 13.4 min in data set [13], 9.77 min in [17] and 10.5 min in [15].

The values are drawn from the RepoRT retention time repository (doi:10.1016/j.jchromb.2020.122105).
